Experimental data from the NIST ThermoML archive (doi:10.1021/je100832h).

Experiment: xn = mol fraction of the nth substance listed
Details: 101.32 kPa, Liquid, Vibrating tube method

CCOC(C)=O [ethyl acetate] + CCCCCCC
Details | mass density [kg/m3]
291.15 K, x1 = 0.0161 | 687.34
291.15 K, x1 = 0.0572 | 692.44
291.15 K, x1 = 0.1159 | 700.33
291.15 K, x1 = 0.2057 | 713.27
291.15 K, x1 = 0.2894 | 726.55
291.15 K, x1 = 0.3673 | 740
291.15 K, x1 = 0.4396 | 753.43
291.15 K, x1 = 0.5126 | 768.17
291.15 K, x1 = 0.5792 | 782.54
291.15 K, x1 = 0.6414 | 796.91
291.15 K, x1 = 0.7006 | 811.5
291.15 K, x1 = 0.7555 | 825.89
291.15 K, x1 = 0.8141 | 842.35
291.15 K, x1 = 0.8631 | 856.84
291.15 K, x1 = 0.9105 | 872
291.15 K, x1 = 0.9718 | 892.61
291.15 K, x1 = 1 | 902.88
298.15 K, x1 = 0.0409 | 684.35
298.15 K, x1 = 0.0568 | 686.42
298.15 K, x1 = 0.1196 | 694.72
298.15 K, x1 = 0.1493 | 698.85
298.15 K, x1 = 0.2079 | 707.39
298.15 K, x1 = 0.2587 | 715.2
298.15 K, x1 = 0.2981 | 721.51
298.15 K, x1 = 0.3171 | 724.7
298.15 K, x1 = 0.3703 | 733.9
298.15 K, x1 = 0.4203 | 743.04
298.15 K, x1 = 0.4911 | 756.8
298.15 K, x1 = 0.5587 | 770.85
298.15 K, x1 = 0.6169 | 783.73
298.15 K, x1 = 0.6668 | 795.46
298.15 K, x1 = 0.727 | 810.54
298.15 K, x1 = 0.778 | 824.17
298.15 K, x1 = 0.8302 | 839.02
298.15 K, x1 = 0.8787 | 853.8
298.15 K, x1 = 0.9206 | 867.23
298.15 K, x1 = 0.9879 | 890.2
298.15 K, x1 = 1 | 894.4
318.15 K, x1 = 0.053 | 668.2
318.15 K, x1 = 0.0902 | 672.9
318.15 K, x1 = 0.1685 | 683.15
318.15 K, x1 = 0.2326 | 692.18
318.15 K, x1 = 0.2439 | 693.85
318.15 K, x1 = 0.2981 | 702.14
318.15 K, x1 = 0.3991 | 719.02
